{"source": "patent US8658383B2", "about": "“Sweet taste receptor-expressing construct, cell body expressing the same, and utilization thereof” (T. Hasegawa Co., Ltd., priority 2009, dated 2014)", "target": "T1, human sweet taste receptor (hT1R2+hT1R3) (Homo sapiens, UniProt Q7RTX0+Q8TE23)", "T1 sequence (Q8TE23 20-839)": "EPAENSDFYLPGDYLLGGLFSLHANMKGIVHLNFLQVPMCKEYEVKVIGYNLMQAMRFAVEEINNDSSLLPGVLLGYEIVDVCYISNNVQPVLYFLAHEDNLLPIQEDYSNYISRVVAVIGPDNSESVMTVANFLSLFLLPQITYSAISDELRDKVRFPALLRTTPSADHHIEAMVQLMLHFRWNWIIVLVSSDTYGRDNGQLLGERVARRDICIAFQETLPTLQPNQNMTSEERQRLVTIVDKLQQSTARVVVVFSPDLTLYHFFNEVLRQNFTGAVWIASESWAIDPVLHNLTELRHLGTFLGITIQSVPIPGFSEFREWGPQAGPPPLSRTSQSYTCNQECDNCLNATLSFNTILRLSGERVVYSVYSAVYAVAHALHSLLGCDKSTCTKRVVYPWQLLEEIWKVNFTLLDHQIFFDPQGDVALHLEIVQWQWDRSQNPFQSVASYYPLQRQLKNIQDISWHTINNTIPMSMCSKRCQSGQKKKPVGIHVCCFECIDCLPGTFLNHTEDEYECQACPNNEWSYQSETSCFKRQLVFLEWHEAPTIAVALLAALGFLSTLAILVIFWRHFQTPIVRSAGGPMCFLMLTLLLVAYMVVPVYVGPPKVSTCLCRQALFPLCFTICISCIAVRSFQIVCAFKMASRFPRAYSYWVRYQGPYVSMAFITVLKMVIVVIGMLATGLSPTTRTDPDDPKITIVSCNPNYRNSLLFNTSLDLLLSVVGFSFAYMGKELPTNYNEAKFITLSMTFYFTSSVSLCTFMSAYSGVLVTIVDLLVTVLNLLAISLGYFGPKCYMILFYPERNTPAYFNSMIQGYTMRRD", "T1 sequence (Q7RTX0 21-852)": "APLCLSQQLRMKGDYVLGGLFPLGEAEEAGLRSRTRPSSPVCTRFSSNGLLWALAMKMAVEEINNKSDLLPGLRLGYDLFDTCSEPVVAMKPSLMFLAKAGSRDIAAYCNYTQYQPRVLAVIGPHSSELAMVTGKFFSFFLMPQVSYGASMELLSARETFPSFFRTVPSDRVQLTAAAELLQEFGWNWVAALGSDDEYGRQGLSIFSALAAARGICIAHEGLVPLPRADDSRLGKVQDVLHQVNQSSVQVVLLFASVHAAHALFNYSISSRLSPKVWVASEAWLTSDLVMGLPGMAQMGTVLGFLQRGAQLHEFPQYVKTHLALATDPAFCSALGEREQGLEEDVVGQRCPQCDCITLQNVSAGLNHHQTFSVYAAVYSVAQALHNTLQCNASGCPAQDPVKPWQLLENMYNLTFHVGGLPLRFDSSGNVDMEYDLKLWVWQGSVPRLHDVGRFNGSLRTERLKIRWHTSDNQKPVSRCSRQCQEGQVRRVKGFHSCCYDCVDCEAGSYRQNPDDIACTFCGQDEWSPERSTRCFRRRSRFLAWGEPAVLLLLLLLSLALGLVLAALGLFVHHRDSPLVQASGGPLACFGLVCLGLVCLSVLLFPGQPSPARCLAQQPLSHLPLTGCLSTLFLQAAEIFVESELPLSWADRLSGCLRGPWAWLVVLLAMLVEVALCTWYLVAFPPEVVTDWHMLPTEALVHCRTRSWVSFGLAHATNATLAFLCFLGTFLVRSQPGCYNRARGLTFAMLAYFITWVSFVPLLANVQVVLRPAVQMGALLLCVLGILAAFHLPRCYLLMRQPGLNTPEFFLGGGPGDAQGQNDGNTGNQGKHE", "assay": "Automated fluorescent calcium imaging (Fluo-4 AM, FlexStation 3) of cultured cell strain (A)", "format": "cell-based", "parameters": "The sweet taste receptor subunits T1R2 and T1R3 include an entire part of each subunit", "settings": "Average ± S.E., n = 2", "experimental": "Automated fluorescent imaging using FlexStation 3 (Molecular Devices) can be performed, for example, according to the following procedure.\nFirst, cells are suspended in a low glucose ([…]) DMEM medium from which hygromycin B has been removed, and each 70 to 80 thousands of cells are seeded on each well of a 96-well plate (Corning, CellBIND Surface).\nThen, after cultured at 37° C. for 24 hours, a medium is removed and replaced with a suitable amount of a HEPES (2-[4-(2-hydroxyethyl)-1-piperazinyl]ethanesulfonic acid) buffer, and a HEPES buffer containing a fluorescent calcium indicator (Fluo-4 AM attached to Molecular Devices, FLIPR Ca 4 Assay Kit) is further added. In order to facilitate transfer into cells, a fat-soluble acetoxymethyl group has been introduced into the fluorescent indicator Fluo-4 (excitation wavelength: 495 nm, fluorescent wavelength: 518 nm), and when it is added to a medium, it is easily taken into cells, and is hydrolyzed with an esterase in cells. Hydrolyzed Fluo-4 becomes difficult to be permeated through a cell membrane, and is diffused into cells to form a complex with calcium, emitting intense fluorescence. In a 96-well plate for fluorescent observation, there are a plastic bottom and a film bottom. Since a plate of the plastic bottom is satisfactory in adherability and growth of cells, it is used at a simultaneous assay using a multiplate reader for observing an entire well. However, since a plate of this plastic bottom is bad in transmission property of a UV wavelength, and inhibits transmission of excited light of Fura-2, Fluo-4 is used.\nThen, after incubated at 27 to 37° C. for 30 to 60 minutes, by adding thereto a sweet taste substance at a particular concentration or a solution of a sweet taste substance and a substance to be tested, taste stimulation is performed at 27 to 37° C.\nA physiological response of the cultured cell strain (A) to sucrose stimulation was analyzed by automated fluorescent imaging.\nThe cultured cell strain (A) prepared in Example 4 was trypsinized, and suspended in the DMEM medium, a cell density was measured, and each about 80 thousand cells were seeded on each well of a 96-well plate (Corning, CellBIND Surface).\nAfter cultured at 37° C. for 24 hours, the medium was removed and replaced with 50 μl of a HEPES buffer, and 50 μl of a HEPES buffer containing a fluorescent calcium indicator (Fluo-4 AM attached to Molecular Devices, FLIPR Ca 4 Assay Kit) was further added. Then, this was incubated at 27° C. for 45 minutes to prepare cells to be subjected to automated fluorescent imaging.\nThen, to the cells was added a HEPES buffer containing sucrose, so that a final concentration of sucrose became a concentration described in Table 1, and sucrose stimulation was performed at 27° C.\nThe vertical axis of FIG. 15 is a maximum of change (AF) in a fluorescent intensity between immediately after stimulation and 100 seconds after stimulation, that is, a response intensity of cells, and the horizontal axis indicates a sucrose concentration (mM) expressed by logarithm.\nA physiological response of the cultured cell strain (A) to D-phenylalanine stimulation was analyzed by automated fluorescent imaging.", "note": "Residues, ends and D or L forms follow the SMILES beside them.", "data": [{"smiles": "COC(=O)[C@H](Cc1ccccc1)NC(=O)[C@@H](N)CC(=O)O", "note": "[aspartame] (H-Asp-Phe-OMe)", "values": [{"measurement": "Change amount of fluorescent intensity (ΔF)", "setting": "aspartame 0.04 mM", "result": "3.0 ± 0.1"}, {"measurement": "Change amount of fluorescent intensity (ΔF)", "setting": "aspartame 0.16 mM", "result": "4.4 ± 1.1"}, {"measurement": "Change amount of fluorescent intensity (ΔF)", "setting": "aspartame 0.31 mM", "result": "5.2 ± 0.4"}, {"measurement": "Change amount of fluorescent intensity (ΔF)", "setting": "aspartame 0.63 mM", "result": "12.3 ± 1.7"}, {"measurement": "Change amount of fluorescent intensity (ΔF)", "setting": "aspartame 1.25 mM", "result": "27.9 ± 1.9"}, {"measurement": "Change amount of fluorescent intensity (ΔF)", "setting": "aspartame 2.50 mM", "result": "31.2 ± 0.7"}]}]}
